MIC and ED50 data for twelve compounds are collected here from patent publication US20070049564A1 (Wyeth, priority 2005, published 2007).

Molecules are shown by their SMILES. Values after ≈ are worked out from the molar mass of the structure shown. Read-outs that look alike come from different tables or passages of the source. Where only a bound is given, the exact number is not on record here.

Test [1] relates to S. cholerasius GC 1355. The test can be described thus: MIC, broth microdilution. The conditions noted are these: S. cholerasius GC 1355. For orientation: Broth dilution looks for growth in wells or tubes with falling amounts of substance.
Test [2] concerns Staph. aureus Smith. The test can be described thus: In vitro activity (MIC) against Staph. aureus Smith. The note with it: Staphylococcus aureus. The test is classed as cell-based.
The subject of test [3] is E. coli #311. As to the kind of experiment: In vivo activity (oral, iv; ED50) against E. coli in mice. The note with it: Escherichia coli. From the text:
. […] Smith and E. Coli #311 in mammals.
Results of the tests (MIC, oral and IV) are list in Table 7.

For test [4], the system named is Salmonella spp. GC 566. As to the kind of experiment: MIC, broth microdilution. The conditions noted are these: Salmonella, SPP.GC566, Salmonella spp. GC 566.
Method: (§1) Antimicrobial susceptibility testing. The in vitro activities of the antibiotics are determined by the broth microdilution method as recommended by the National Committee for Clinical Laboratory Standards (NCCLS) (1). Mueller-Hinton II broth (MHBII)(BBL Cockeysville, Md.) is the medium employed in the testing procedures. Microtiter plates containing serial dilutions of each antimicrobial agent are inoculated with each organism to yield the appropriate density (10^5 CFU/ml) in a 100 μl final volume. The plates are incubated for 18-22 hours at 35° C. in ambient air.
Presented in Tables I-XIII are representative compounds of Formula I which were evaluated against a panel of 40 selected gram-positive and gram-negative bacteria strains by pre-incubation in water, mouse serum or human serum. Representative compounds were first incubated in mouse serum for an hour prior to the in vitro testing against a panel of selected gram-positive and gram-negative bacteria strains. All compounds were also pre-incubated in water for an hour prior to testing as control. Representative compounds of Formula I were incubated in human serum prior to MIC determination.
Test [5] deals with E. coli. The test can be described thus: In vitro activity (MIC) against E. coli (Table 7). The conditions noted are these: Escherichia coli. The test is classed as cell-based.
The subject of test [6] is Salmonella spp. GC 235. As to the kind of experiment: MIC, broth microdilution. The note with it: Salmonella, SPP.GC235, Salmonella spp. GC 235.
Method: as §1
Representative compounds were first incubated in mouse serum for an hour prior to the in vitro testing against a panel of selected gram-positive and gram-negative bacteria strains. All compounds were also pre-incubated in water for an hour prior to testing as control.
Where [7] appears, read: single intravenous dose, mice, Table 7, read-out: ED50 SIV (E. coli).
Setting [8] is: single oral dose, mice, Table 7, read-out: ED50 SOD (E. coli).
[9] abbreviates: single intravenous dose (SIV), read-out: ED50 E. coli #311 SIV.
Setting [10] is: single oral dose (SOD), read-out: ED50 E. coli #311 SOD.

What is called MIC is the smallest concentration in the dilution series that meets the test's criterion for growth inhibition. A lower MIC goes with greater potency. As a reminder, the ED50 is the dose that gives a 50% effect, or the effect in half of the subjects. For `CCCN(CC(=O)Nc1cc(N(C)C)c2c(c1O)C(=O)C1=C(O)[C@]3(O)C(=O)C(C(N)=O)=C(O)[C@@H](N(C)C)[C@@H]3C[C@@H]1C2)C(=O)OCOC(=O)c1ccc(C)cc1` [Example 5, ({[(2-{[(5aR,6aS,7S,10aS)-9-(aminocarbonyl)-4,7-bis(dimethylamino)-1,8,10a,11-tetrahydroxy-10,12-dioxo-5,5a,6,6a,7,10,10a,12-octahydrotetracen-2-yl]amino}-2-oxoethyl)(propyl)amino]carbonyl}oxy)methyl 4-methylbenzoate], the MIC in test [1] (Mouse Serum pre-incubation) is 16 µg/mL (≈ 20.9 µM); in test [1] (Water pre-incubation) it was more than 64 µg/mL; in test [2] (Table 8), 1 µg/mL (≈ 1.31 µM); in test [4] (Mouse Serum pre-incubation) it was 4 µg/mL (≈ 5.24 µM); in test [4] (Water pre-incubation), 64 µg/mL (≈ 83.8 µM); in test [5] it was more than 64 µg/mL. The MIC came to 2 µg/mL (≈ 2.62 µM) in test [6] (Mouse Serum pre-incubation) and 32 µg/mL (≈ 41.9 µM) in test [6] (Water pre-incubation). The results for the ED50 in test [3] (setting [7]) and in test [3] (setting [8]) were 3.17 mg/kg and more than 64 mg/kg, respectively.
For the compound `CCCN(CC(=O)Nc1cc(N(C)C)c2c(c1O)C(=O)C1=C(O)[C@]3(O)C(=O)C(C(N)=O)=C(O)[C@@H](N(C)C)[C@@H]3C[C@@H]1C2)C(=O)OCOC(=O)c1cc(C)cc(C)c1` [Example 26, ({[(2-{[(5aR,6aS,7S,10aS)-9-(aminocarbonyl)-4,7-bis(dimethylamino)-1,8,10a,11-tetrahydroxy-10,12-dioxo-5,5a,6,6a,7,10,10a,12-octahydrotetracen-2-yl]amino}-2-oxoethyl)(propyl)amino]carbonyl}oxy)methyl 3,5-dimethylbenzoate], in test [2] (Table 8), the minimum inhibitory concentration (MIC) came to 0.5 µg/mL (≈ 0.643 µM).
In test [2] (Table 8), `CCCN(CC(=O)Nc1cc(N(C)C)c2c(c1O)C(=O)C1=C(O)[C@]3(O)C(=O)C(C(N)=O)=C(O)[C@@H](N(C)C)[C@@H]3C[C@@H]1C2)C(=O)OCOC(=O)c1ccc(C(C)(C)C)cc1` [Example 28, ({[(2-{[(5aR,6aS,7S,10aS)-9-(aminocarbonyl)-4,7-bis(dimethylamino)-1,8,10a,11-tetrahydroxy-10,12-dioxo-5,5a,6,6a,7,10,10a,12-octahydrotetracen-2-yl]amino}-2-oxoethyl)(propyl)amino]carbonyl}oxy)methyl 4-tert-butylbenzoate] yielded an MIC of 32 µg/mL (≈ 39.7 µM). Moreover, the values for the 50% effective dose (ED50) in test [3] (setting [9]) and in test [3] (setting [10]) were more than 2 mg/kg and more than 32 mg/kg, respectively.
As for `CN(C)c1cc(NC(=O)CN(C(=O)OCOC(=O)CC(C)(C)C)C(C)(C)C)c(O)c2c1C[C@H]1C[C@H]3[C@H](N(C)C)C(O)=C(C(N)=O)C(=O)[C@@]3(O)C(O)=C1C2=O` [Example 42, ({[(2-{[(5aR,6aS,7S,10aS)-9-(aminocarbonyl)-4,7-bis(dimethylamino)-1,8,10a,11-tetrahydroxy-10,12-dioxo-5,5a,6,6a,7,10,10a,12-octahydrotetracen-2-yl]amino}-2-oxoethyl)(tert-butyl)amino]carbonyl}oxy)methyl 3,3-dimethylbutanoate], the minimum inhibitory concentration (MIC) in test [2] (Table 6) is 8 µg/mL (≈ 10.6 µM); in test [5], more than 64 µg/mL. In addition, the ED50 in test [3] (setting [9]) was found to be 3.1 mg/kg; in test [3] (setting [7]), 3.1 mg/kg; in test [3] (setting [10]), 30.3 mg/kg; in test [3] (setting [8]), 30.3 mg/kg.
Consider `CCC(C)(C)C(=O)OCOC(=O)N(CC(=O)Nc1cc(N(C)C)c2c(c1O)C(=O)C1=C(O)[C@]3(O)C(=O)C(C(N)=O)=C(O)[C@@H](N(C)C)[C@@H]3C[C@@H]1C2)C(C)(C)C` [Example 44, ({[(2-{[(5aR,6aS,7S,10aS)-9-(aminocarbonyl)-4,7-bis(dimethylamino)-1,8,10a,11-tetrahydroxy-10,12-dioxo-5,5a,6,6a,7,10,10a,12-octahydrotetracen-2-yl]amino}-2-oxoethyl)(tert-butyl)amino]carbonyl}oxy)methyl 2,2-dimethylbutanoate], for which the results for the MIC in test [2] (Table 6) and in test [5] were 4 µg/mL (≈ 5.28 µM) and more than 64 µg/mL, respectively. Also, the ED50 in test [3] (setting [9]) turned out to be 2.85 mg/kg; in test [3] (setting [7]), 2.85 mg/kg; in test [3] (setting [10]) it was 42.8 mg/kg; in test [3] (setting [8]) it was 42.8 mg/kg.
As for `CC(C)C(=O)OCOC(=O)N(CC(=O)Nc1cc(N(C)C)c2c(c1O)C(=O)C1=C(O)[C@]3(O)C(=O)C(C(N)=O)=C(O)[C@@H](N(C)C)[C@@H]3C[C@@H]1C2)C(C)(C)C` [Example 45, ({[(2-{[(5aR,6aS,7S,10aS)-9-(aminocarbonyl)-4,7-bis(dimethylamino)-1,8,10a,11-tetrahydroxy-10,12-dioxo-5,5a,6,6a,7,10,10a,12-octahydrotetracen-2-yl]amino}-2-oxoethyl)(tert-butyl)amino]carbonyl}oxy)methyl 2-methylpropanoate], the MIC in test [2] (Table 6) stood at 1 µg/mL (≈ 1.37 µM); in test [5], 64 µg/mL (≈ 87.7 µM). For the same compound, the ED50 turned out to be 1.8 mg/kg in test [3] (setting [9]), 1.8 mg/kg in test [3] (setting [7]), 64 mg/kg in test [3] (setting [10]) and 64 mg/kg in test [3] (setting [8]).
Compound `Cc1ccc(C(=O)OCOC(=O)N(CC(=O)Nc2cc(N(C)C)c3c(c2O)C(=O)C2=C(O)[C@]4(O)C(=O)C(C(N)=O)=C(O)[C@@H](N(C)C)[C@@H]4C[C@@H]2C3)C(C)(C)C)cc1` [Example 47] came in with an MIC in test [2] (Table 6) of 4 µg/mL (≈ 5.14 µM). Further, the values for the median effective dose (ED50) in test [3] (setting [9]) and in test [3] (setting [10]) were 3.17 mg/kg and more than 64 mg/kg, respectively.
Take `CCCCCCC(=O)OCOC(=O)N(CC(=O)Nc1cc(N(C)C)c2c(c1O)C(=O)C1=C(O)[C@]3(O)C(=O)C(C(N)=O)=C(O)[C@@H](N(C)C)[C@@H]3C[C@@H]1C2)C(C)(C)C` [Example 48, ({[(2-{[(5aR,6aS,7S,10aS)-9-(aminocarbonyl)-4,7-bis(dimethylamino)-1,8,10a,11-tetrahydroxy-10,12-dioxo-5,5a,6,6a,7,10,10a,12-octahydrotetracen-2-yl]amino}-2-oxoethyl)(tert-butyl)amino]carbonyl}oxy)methyl heptanoate]: the MIC in test [2] (Table 6) was 0.25 µg/mL (≈ 0.324 µM); in test [5], more than 64 µg/mL. Also, the ED50 came out at 1.7 mg/kg in test [3] (setting [9]), 1.7 mg/kg in test [3] (setting [7]), 29.8 mg/kg in test [3] (setting [10]) and 29.8 mg/kg in test [3] (setting [8]).
Regarding `CCC(=O)OCOC(=O)N(CC(=O)Nc1cc(N(C)C)c2c(c1O)C(=O)C1=C(O)[C@]3(O)C(=O)C(C(N)=O)=C(O)[C@@H](N(C)C)[C@@H]3C[C@@H]1C2)C(C)(C)C` [Example 49, ({[(2-{[(5aR,6aS,7S,10aS)-9-(aminocarbonyl)-4,7-bis(dimethylamino)-1,8,10a,11-tetrahydroxy-10,12-dioxo-5,5a,6,6a,7,10,10a,12-octahydrotetracen-2-yl]amino}-2-oxoethyl)(tert-butyl)amino]carbonyl}oxy)methyl propionate], the MIC in test [2] (Table 6) worked out at 0.25 µg/mL (≈ 0.349 µM); in test [5], 64 µg/mL (≈ 89.4 µM). The ED50 in test [3] (setting [9]) turned out to be 2.2 mg/kg; in test [3] (setting [7]), 2.2 mg/kg; in test [3] (setting [10]) it was 49 mg/kg; in test [3] (setting [8]), 49 mg/kg.
`CN(C)c1cc(NC(=O)CN(C(=O)OCOC(=O)C2CCCCC2)C(C)(C)C)c(O)c2c1C[C@H]1C[C@H]3[C@H](N(C)C)C(O)=C(C(N)=O)C(=O)[C@@]3(O)C(O)=C1C2=O` [Example 50, ({[(2-{[(5aR,6aS,7S,10aS)-9-(aminocarbonyl)-4,7-bis(dimethylamino)-1,8,10a,11-tetrahydroxy-10,12-dioxo-5,5a,6,6a,7,10,10a,12-octahydrotetracen-2-yl]amino}-2-oxoethyl)(tert-butyl)amino]carbonyl}oxy)methyl cyclohexanecarboxylate]: the MIC in test [2] (Table 6) is 0.5 µg/mL (≈ 0.649 µM); in test [5] it was more than 64 µg/mL. The ED50 in test [3] (setting [9]) was 2.59 mg/kg; in test [3] (setting [7]), 1.7 mg/kg; in test [3] (setting [10]), more than 64 mg/kg; in test [3] (setting [8]) it was 29.8 mg/kg.
Consider `CN(C)c1cc(NC(=O)CN(C(=O)OCOC(=O)c2ccc(F)cc2)C(C)(C)C)c(O)c2c1C[C@H]1C[C@H]3[C@H](N(C)C)C(O)=C(C(N)=O)C(=O)[C@@]3(O)C(O)=C1C2=O` [Example 52, ({[(2-{[(5aR,6aS,7S,10aS)-9-(aminocarbonyl)-4,7-bis(dimethylamino)-1,8,10a,11-tetrahydroxy-10,12-dioxo-5,5a,6,6a,7,10,10a,12-octahydrotetracen-2-yl]amino}-2-oxoethyl)(tert-butyl)amino]carbonyl}oxy)methyl 4-fluorobenzoate], for which the figures for the MIC in test [2] (Table 6) and in test [5] were 2 µg/mL (≈ 2.56 µM) and 8 µg/mL (≈ 10.2 µM), respectively. Moreover, the 50% effective dose (ED50) in test [3] (setting [9]) stood at 3.78 mg/kg; in test [3] (setting [7]), 3.78 mg/kg; in test [3] (setting [10]) it was 43.7 mg/kg; in test [3] (setting [8]), 43.7 mg/kg.
With `CC(C)CC(=O)OCOC(=O)N(CC(=O)Nc1cc(N(C)C)c2c(c1O)C(=O)C1=C(O)[C@]3(O)C(=O)C(C(N)=O)=C(O)[C@@H](N(C)C)[C@@H]3C[C@@H]1C2)C(C)(C)C` [Example 53, ({[(2-{[(5aR,6aS,7S,10aS)-9-(aminocarbonyl)-4,7-bis(dimethylamino)-1,8,10a,11-tetrahydroxy-10,12-dioxo-5,5a,6,6a,7,10,10a,12-octahydrotetracen-2-yl]amino}-2-oxoethyl)(tert-butyl)amino]carbonyl}oxy)methyl 3-methylbutanoate], the minimal inhibitory concentration (MIC) in test [2] (Table 6) was found to be 1 µg/mL (≈ 1.34 µM); in test [5], 32 µg/mL (≈ 43 µM). Moreover, the 50% effective dose (ED50) amounted to 2.25 mg/kg in test [3] (setting [9]), 2.25 mg/kg in test [3] (setting [7]), 46.9 mg/kg in test [3] (setting [10]) and 46.9 mg/kg in test [3] (setting [8]).
